In patent US20060094693A1, “Methods and compositions for treating glucose-associated conditions, metabolic syndrome, dyslipidemias and other conditions” (Point Therapeutics, Inc., priority 2004, published 2006):

Tests used:
Lewis rats = test: in vivo; conditions: Lewis rats, single dose, 5 days observation
Method: Serum DPP-IV inhibition and observation of acute toxicity of amino boronic dipeptides in Lewis rats. […] After observations were completed or at the onset of a moribund state, humane euthanasia was performed by asphyxiation in 100% CO2.

[1] = biological target: T1, soluble recombinant human DPP-IV (Homo sapiens, UniProt P27487); test: In vitro assay of enzymatic activity of recombinant soluble DPP-IV and inhibition by amino boronic dipeptides; type: biochemical; conditions: assayed 3 minutes, 78 minutes and 16 hours after addition of Ala-Pro-AFC
T1 construct: immunoglobulin kappa light chain secretion signal (pSecTag2-B) (N, cleaved yes); made in house; host or cells: 293T cells, transient transfection; unpurified culture supernatant used
Text: Production of soluble recombinant human DPP-IV. Based on information on the N-terminus of serum DPP-IV (15), a truncated DPP-IV was engineered in which a signal/leader sequence was joined to the residue in DPP-IV corresponding to the N-terminus of serum DPP-IV to allow secretion. The cDNA encoding the desired truncated human DPP-IV dimer enzyme was engineered into the mammalian secretion vector pSecTag2 (Cat# V900-20, InVitrogen Corporation). The vector, available in A, B or C versions, representing three possible phases for gene fusion, contained an immunoglobulin-kappa light chain secretion signal followed by a selection of restriction sites for gene insertion. The fusion required engineering a restriction site upstream of the chosen fusion amino acid in the 5′ end of the DPP-IV dimer enzyme nucleic acid in phase with the chosen restriction site (Sfi I) in the vector secretion sequence. The chosen fusion amino acid in the 5′ end of the DPP-IV (Ser39) was 3′ of the trans-membrane anchoring domain. The pSecTag2 version B and its Sfi I restriction site was chosen for the fusion because it minimizes the additional N-terminal, vector-encoded residues in the mature secreted protein.
Construction of the fusion was as follows. First, total RNA was isolated from the Caco-2 colorectal carcinoma cell line (ATCC HTB-37) by standard Trizol/phenol/chloroform methodology. The purified RNA (approx. 2.5 μg in a 20 μl reaction) was used to make cDNA using oligo-dT primer and a commercial reverse transcription (RT) kit (InVitrogen). […] The following thermal cycler program was used: 94° C. for 45 sec. initial denaturation, then 30 cycles of 94° C., 10 sec.; 48° C., 6 sec.; 60° C., 4 min; followed by 5-min. extension at 72° C. after cycling.
DNA from the plasmid encoding DPP-IV dimer enzyme was prepared on an approximately 400 μg scale from overnight 30 ml cultures in Luria broth with 100 μg ampicillin per ml using a commercial kit (Qiagen Maxiprep Kit).
In vitro assay of enzmatic activity ofrecombinant soluble DPP-IV and inhibition by amino boronic dipeptides. The assay reaction mixture consisted of 135 μl 50 mM HEPES/Na buffer pH 7.6, 140 mM NaCl, 10-15 gl enzyme-containing culture supernatant, dipeptide substrate Ala-Pro-(7-amino-4-trifluoromethyl coumarin) (Ala-Pro-AFC; Enzyme System Products, Dublin, Calif.) at typically 0.1-1 mM added from a 100 or 400 mM stock in dimethyl formamide. The reaction mixture was incubated at room temperature, and production of the fluorescent AFC product was measured in a fluorometer (excitation, 400 nm; emission 505 nm), either by continuous monitoring or after termination with a one to one-tenth volume of 1 -M sodium acetate, pH 4.5. Fluorometric reading were made with a Molecular Dynamics Spectra Max GeminiXS capable of reading 96-well microtiter plates. The inhibitory activity of amino boronic dipeptides was investigated by preincubation of assay reaction mixtures with varying concentrations of each compound for 10 minutes before the addition of the substrate Ala-Pro-AFC.

serum DPP-IV = biological target: T2, serum DPP-IV (Rattus norvegicus, UniProt P14740); test: Serum DPP-IV inhibition in Lewis rats; type: in vivo; conditions: single oral administration, 2 hours
T2 construct: from tissue; host or cells: serum of Lewis rats dosed with the compounds
Method: Assay of serum DPP-IV inhibition in vivo. […] DPP-IV activity was determined by reaction of 10 μl serum with 90 μl of 0.11 mM Ala-Pro-AFC (Enzyme System Products, Dublin, Calif.) in 50 mM HEPES/Na buffer pH 7.6, 140 mM NaCl.

serum KC/CXCL1 = test: Serum KC/CXCL1 levels in vivo (ELISA); parameters: species or system BALB/c mice; conditions: 0.2-200 μg/mouse oral, 2 hours
Method: Assay ofserum DPP-IV inhibition and KC/CXCL1 levels in vivo. […] Each mouse received a single administration of each amino boronic dipeptide or saline, and blood samples were withdrawn from mice 2 hours later.
Serum concentration of mouse KC/CXCL1 was determined by Quantikine enzyme-linked immunosorbent assay (ELISA; R&D Systems, Minneapolis, Minn.) according to the manufacturer's instructions. ELISA was performed in duplicate for each sample.

[2] = test system: Zucker Diabetic Fatty (ZDF) rats; test: 6 week glycemic control study in Zucker Diabetic Fatty rats; type: in vivo; conditions: Metformin group, day 14-15
Method: The design of the 6 week long study is depicted in FIG. 8. 60 male Zucker Diabetic Fatty (ZDF) rats (5 weeks of age) were obtained from Charles River Labs. The animals are housed singly and allowed to acclimatize for 1 week before the initiation of the study. 24-hour food intake and body weight was measured gravimetrically twice weekly from the start of housing. HbA1C levels were measured at Day 0, 7, 14, 28 and 46. OGTT was administered on Day 2-3, 15 minutes after the administration of the drugs. OGTT was administered again at the end of the study but in this case, drugs were given 15 hours prior to the OGTT. The 24-hour glucose profile was monitored at day 14-15 of the study.
The insulin sensitivity index was calculated at the termination of the study according to the method described by Matsuda and DeFronzo (Diabetes Care. 1999 Sep.;22(9):1462-70).

[3] = test system: human bone marrow stromal cells; test: G-CSF supernatant levels in human bone marrow stromal cell cultures; type: cell-based; conditions: 1 to 10^4 nM, 24 hours
Method: Human bone marrow stromal cell cultures. Samples of normal human bone marrow were purchased from Cambrex Bioproducts (Walkersville, Md.) and mononuclear cells were purified over Ficoll-Hypaque (Nycomed, Oslo, Norway). Human stromal layers were established by seeding 4×10^7 mononuclear cells into T75 flasks (Corning) containing 20 ml MyeloCult medium (Stem Cell Technologies, Vancouver, BC) supplemented with 10^−6 M hydrocortisone (Sigma) and incubation at 37° C. in 100% humidified 5% CO2 in air. After one week, half the medium was exchanged, and the cultures incubated for approximately one week more, after which time, a semi-confluent cell layer was formed. Stromal cells were harvested by trypsinization using standard technique and 10^5 cells/well were seeded in multi-well plates in 1 ml of fully supplemented DMEM (InVitrogen, Carlsbad, Calif.). […] Multiwell cultures without the addition of amino boronic dipeptides served as controls. […] Supernatant concentrations of human G-CSF were determined by Quantikine enzyme-linked immunosorbent assay (ELISA; R&D Systems, Minneapolis, Minn.) according to the manufacturer's instructions. […] The effect of each amino boronic dipeptide on the level of supernatant G-CSF was determined by calculating a stimulation index (SI): SI=(mean G-CSF concentration in culture with amino boronic dipeptide)/(mean G-CSF concentration in control culture).

DPP-IV = DPP-IV (Homo sapiens, UniProt P27487); conditions: in vivo; cited from earlier work
DPP-IV, sequence (P27487 whole entry, species assumed): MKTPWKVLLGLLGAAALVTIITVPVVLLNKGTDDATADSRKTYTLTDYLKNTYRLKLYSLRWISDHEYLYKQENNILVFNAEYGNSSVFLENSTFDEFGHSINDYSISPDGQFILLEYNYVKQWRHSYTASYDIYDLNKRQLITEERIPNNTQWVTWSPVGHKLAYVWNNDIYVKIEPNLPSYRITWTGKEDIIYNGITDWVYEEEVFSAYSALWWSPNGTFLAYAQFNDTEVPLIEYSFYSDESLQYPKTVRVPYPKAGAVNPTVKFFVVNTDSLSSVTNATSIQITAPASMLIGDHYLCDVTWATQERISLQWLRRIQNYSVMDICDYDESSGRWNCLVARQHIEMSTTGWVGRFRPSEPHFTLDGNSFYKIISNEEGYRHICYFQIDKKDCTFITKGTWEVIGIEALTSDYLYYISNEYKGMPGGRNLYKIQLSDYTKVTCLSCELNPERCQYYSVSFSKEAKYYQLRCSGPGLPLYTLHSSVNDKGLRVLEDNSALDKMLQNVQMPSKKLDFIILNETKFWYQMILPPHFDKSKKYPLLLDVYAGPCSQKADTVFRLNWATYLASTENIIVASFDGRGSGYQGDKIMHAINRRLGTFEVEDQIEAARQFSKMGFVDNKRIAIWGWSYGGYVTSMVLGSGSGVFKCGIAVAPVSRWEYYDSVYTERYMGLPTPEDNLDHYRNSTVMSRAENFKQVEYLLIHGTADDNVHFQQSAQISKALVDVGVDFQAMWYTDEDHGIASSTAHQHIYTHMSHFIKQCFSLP

T1 sequence (P27487 39-766 limits assumed): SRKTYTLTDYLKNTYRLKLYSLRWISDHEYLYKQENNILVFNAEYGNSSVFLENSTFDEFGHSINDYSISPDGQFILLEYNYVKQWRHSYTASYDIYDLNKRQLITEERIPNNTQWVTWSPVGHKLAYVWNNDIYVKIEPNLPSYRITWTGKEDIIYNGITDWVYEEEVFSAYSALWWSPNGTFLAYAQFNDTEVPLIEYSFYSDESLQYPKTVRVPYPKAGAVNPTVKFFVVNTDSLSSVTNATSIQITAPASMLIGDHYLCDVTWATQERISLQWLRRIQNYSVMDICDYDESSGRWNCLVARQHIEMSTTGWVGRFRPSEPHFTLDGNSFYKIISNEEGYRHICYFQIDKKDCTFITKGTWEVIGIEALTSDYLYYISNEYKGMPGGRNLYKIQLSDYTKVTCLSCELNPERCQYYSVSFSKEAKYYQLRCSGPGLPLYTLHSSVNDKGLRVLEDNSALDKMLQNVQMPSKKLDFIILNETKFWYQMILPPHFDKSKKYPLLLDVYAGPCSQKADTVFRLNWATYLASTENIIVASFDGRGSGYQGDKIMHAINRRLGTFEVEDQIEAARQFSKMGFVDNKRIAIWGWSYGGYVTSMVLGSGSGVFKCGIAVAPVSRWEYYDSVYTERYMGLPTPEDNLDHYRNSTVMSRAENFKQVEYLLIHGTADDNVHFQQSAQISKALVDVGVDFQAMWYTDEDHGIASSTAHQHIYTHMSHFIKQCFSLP
T2 sequence (P14740 37-767 limits assumed): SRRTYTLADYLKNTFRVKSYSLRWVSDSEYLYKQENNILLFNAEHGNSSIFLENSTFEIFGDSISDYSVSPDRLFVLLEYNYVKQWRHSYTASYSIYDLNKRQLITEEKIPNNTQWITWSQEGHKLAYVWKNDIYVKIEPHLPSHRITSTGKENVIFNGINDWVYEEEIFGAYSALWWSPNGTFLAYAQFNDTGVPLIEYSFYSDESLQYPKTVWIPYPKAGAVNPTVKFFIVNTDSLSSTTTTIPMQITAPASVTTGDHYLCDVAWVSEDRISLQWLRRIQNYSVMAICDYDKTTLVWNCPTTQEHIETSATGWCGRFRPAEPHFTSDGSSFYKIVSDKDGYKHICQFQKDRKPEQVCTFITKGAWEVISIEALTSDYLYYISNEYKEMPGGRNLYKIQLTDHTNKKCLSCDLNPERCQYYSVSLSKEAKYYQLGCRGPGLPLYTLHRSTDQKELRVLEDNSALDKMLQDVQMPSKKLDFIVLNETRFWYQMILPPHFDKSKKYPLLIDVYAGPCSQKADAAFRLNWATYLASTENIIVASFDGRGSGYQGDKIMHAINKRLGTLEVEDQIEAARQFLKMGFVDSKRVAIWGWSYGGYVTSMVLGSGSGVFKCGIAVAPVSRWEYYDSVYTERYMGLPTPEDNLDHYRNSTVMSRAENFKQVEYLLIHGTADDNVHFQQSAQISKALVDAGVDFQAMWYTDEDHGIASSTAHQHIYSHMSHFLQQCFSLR

Row | Compound | MTD (maximum tolerated dose) (Lewis rats) | persistence of DPP-IV inhibition after preincubation [1] | other results
1 | CSCC[C@H](N)C(=O)N1CCC[C@H]1B(O)O [Met-boroPro] | 160 µg/kg |  | 
2 | N[C@@H](Cc1ccccc1)C(=O)N1CCC[C@H]1B(O)O [Phe-boroPro] |  | more rapidly reversible | 
3 | CC(C)[C@H](N)C(=O)N1CCC[C@H]1B(O)O [Val-boroPro] | 20 µg/kg |  | ID50 (dose causing 50% reduction in serum DPP-IV activity) (serum DPP-IV): 0.009 mg/kg; serum levels of KC/CXCL1 (serum KC/CXCL1): stimulate increased serum levels of KC/CXCL1 in a dose-dependent manner
4 | CN(C)C(=N)N=C(N)N [Metformin, reference compound] |  |  | AUC of 24 hour glucose profile [2]: achieve significance
5 | NCCCC[C@H](N)C(=O)N1CCC[C@H]1B(O)O [Lys-boroPro] | ≧2,000 μg/kg | more rapidly reversible | 
6 | CC[C@H](C)[C@H](N)C(=O)N1CCC[C@H]1B(O)O [Ile-boroPro] | 120 µg/kg | sustained DPP-IV inhibition | supernatant G-CSF level (stimulation index) [3]: stimulate increased levels of G-CSF; serum levels of KC/CXCL1 (serum KC/CXCL1): stimulate increased serum levels of KC/CXCL1 in a dose-dependent manner
7 | CC(C)C[C@H](N)C(=O)N1CCC[C@H]1B(O)O [Leu-boroPro] | 200 µg/kg | more rapidly reversible | supernatant G-CSF level (stimulation index) [3]: stimulate increased levels of G-CSF; serum levels of KC/CXCL1 (serum KC/CXCL1): stimulate increased serum levels of KC/CXCL1 in a dose-dependent manner
8 | O=C(C1CCCN1)N1CCCC1B(O)O (stereo not shown) [Pro-boroPro] | ≧2,000 μg/kg | more rapidly reversible | 
9 | N[C@@H](CO)C(=O)N1CCC[C@H]1B(O)O [Ser-boroPro] | 4,000 μg/kg |  | 
10 | NC(N)=NCCC[C@H](N)C(=O)N1CCC[C@H]1B(O)O [Arg-boroPro] | ≧2,000 μg/kg | more rapidly reversible | 
11 | C[C@@H](O)[C@H](N)C(=O)N1CCC[C@H]1B(O)O [Thr-boroPro] | 800 µg/kg |  | 
12 | gastric inhibitory protein [GIP] |  |  | t1/2 of N-terminal degradation (DPP-IV): ~1 min
13 | NC(=O)CC[C@H](N)C(=O)N1CCC[C@H]1B(O)O [Gln-boroPro] | ≧800 μg/kg |  | 
14 | C[C@H](N)C(=O)N1CCC[C@H]1B(O)O [Ala-boroPro] | ≧2,000 μg/kg |  | 
